Experimental data taken from US11571416B2, “Amodiaquine analogs and methods of uses thereof” (priority 2017, dated 2023).

Assays:
[1] = system: EBOV-GFP (recombinant Ebolavirus encoding a GFP reporter gene); test: microbe, parasite or virus in culture; format: cell-based; conditions: for IC50: Orthoebolavirus
[2] = Cytotoxicity, CellTiter-Glo Luminescent Cell Viability Assay; conditions: human, Huh7 cells

Row | Compound | antiviral activity / potency in words [1] | IC50 ([1]; Huh-7, 24 h) [nM] | fold potency relative to amodiaquine [1] [fold] | Selectivity index [1] | IC50 ([1]; Huh-7) [nM] | CC50 at 24 h [2] [nM]
1 | C#CCN(CC#C)Cc1cc(Nc2ccnc3cc(Cl)ccc23)ccc1O [Compound 1, 4-(7-chloroquinolin-4-ylamino)-2-bis(2-propyne-1-yl)aminomethylphenol] | reduced antiviral activity | 5780 ± 1490 |  |  |  | 
2 | CCN(CC)Cc1cc(Nc2ccnc3cc(C(F)(F)F)ccc23)ccc1O [Compound 2] |  | 5870 ± 1460 |  |  |  | 
3 | CN(Cc1cc(Nc2ccnc3cc(Cl)ccc23)ccc1O)c1ccccc1 [Compound 3] | reduced antiviral activity | 6390 ± 930 |  |  |  | 
4 | CCN(CC)Cc1cc(Nc2ccnc3cc(Br)ccc23)ccc1O [Compound 4, 4-(7-bromoquinolin-4-ylamino)-2-diethylamino-methylphenol] |  | 1550 ± 140 | 1.4 |  |  | 
5 | CCN(CC)Cc1cc(Nc2ccnc3cc(F)ccc23)ccc1O [Compound 5, 4-(7-fluoroquinolin-4-ylamino)-2-diethylaminomethylphenol] | weaker than amiodiaquine | 2780 ± 280 |  |  |  | 
6 | CCN(CC)Cc1cc(Nc2c3ccccc3nc3ccccc23)ccc1O [Compound 6, 4-(9-acridinylamino)-2-[(diethylamino)methyl]phenol] |  | 1640 ± 220 |  |  |  | 
7 | CC(C)N(C)Cc1cc(Nc2ccnc3cc(Cl)ccc23)ccc1O [Compound 8, 4-(7-chloroquinolin-4-ylamino)-2-(isopropylmethylamino)methylphenol] |  | 1460 ± 140 |  | 27 | 1460 | 39200
8 | CC(C)(C)NCc1cc(Nc2ccnc3cc(Cl)ccc23)ccc1O [Compound 9, 4-(7-chloroquinolin-4-ylamino)-2-tert-butylaminomethylphenol] |  | 1210 ± 90 |  | 22 | 1210 | 26100
9 | CN(C)Cc1cc(Nc2ccnc3cc(Cl)ccc23)ccc1O [Compound 10, 4-(7-chloroquinolin-4-ylamino)-2-dimethylaminomethylphenol] |  | 2140 ± 210 |  |  |  | 
10 | CCN(Cc1cc(Nc2ccnc3cc(Cl)ccc23)ccc1O)C(C)C [Compound 11, 4-(7-chloroquinolin-4-ylamino)-2-(ethylisopropylamino)methylphenol] |  | 1460 ± 150 |  | 41 | 1460 | 60500
11 | CCN(CC)Cc1cc(Nc2ccnc3ccccc23)ccc1O [Compound 12, 2-[(diethylamino)methyl]-4-(quinolin-4-ylamino)phenol] |  | 2140 ± 180 |  |  |  | 
12 | CN1CCN(Cc2cc(Nc3ccnc4cc(Cl)ccc34)ccc2O)CC1 [Compound 13, 4-(7-chloroquinolin-4-ylamino)-2-(4-methyl-1-piperazinyl)methylphenol] | did not decrease potency | 1680 ± 190 |  |  |  | 
13 | CCCN(C)Cc1cc(Nc2ccnc3cc(Cl)ccc23)ccc1O [Compound 14, 4-(7-chloroquinolin-4-ylamino)-2-(methylpropylamino)methylphenol] |  | 1220 ± 110 |  | >82 | 1220 | > 100000
14 | CN(Cc1cc(Nc2ccnc3cc(Cl)ccc23)ccc1O)C(C)(C)C [Compound 15, 4-(7-chloroquinolin-4-ylamino)-2-(tert-butylmethylamino)methylphenol] |  | 1280 ± 70 |  | 33 | 1280 | 41800
15 | CCN(C)Cc1cc(Nc2ccnc3cc(Cl)ccc23)ccc1O [Compound 16, 4-(7-chloroquinolin-4-ylamino)-2-(ethylmethylamino)methylphenol] |  | 2080 ± 220 |  |  |  | 
16 | CCN(CCO)Cc1cc(Nc2ccnc3cc(Cl)ccc23)ccc1O [Compound 17, 4-(7-chloroquinolin-4-ylamino)-2-[ethyl(2-hydroxyethyl)amino]methylphenol] | did not decrease potency | 1770 ± 180 |  |  |  | 
17 | Oc1ccc(Nc2ccnc3cc(Cl)ccc23)cc1CN1CCCC(O)C1 (stereo not drawn) [Compound 19, 4-(7-chloroquinolin-4-ylamino)-2-(3-hydroxy-1-piperidinyl)methylphenol] | did not decrease potency | 1800 ± 280 |  |  |  | 
18 | CCN(CC)Cc1cc(Nc2ccnc3cc(Cl)ccc23)cc(-c2ccc(Cl)cc2)c1O [Compound 20, 6-(4-chlorophenyl)-4-(7-chloroquinolin-4-ylamino)-2-diethylaminomethylphenol] |  | 1310 ± 100 | 1.6 | 15 | 1310 | 19500
19 | Oc1ccc(Nc2ccnc3cc(Cl)ccc23)cc1CN1CCCC1 [Compound 21, 4-(7-chloroquinolin-4-ylamino)-2-pyrrolidinylmethylphenol] |  | 1090 |  | 30 | 1090 | 33200
20 | Oc1ccc(Nc2ccnc3cc(Cl)ccc23)cc1CN1CC[C@@H](O)C1 [Compound 22] | did not decrease potency | 1730 ± 90 |  |  |  | 

Row | Compound | antiviral activity / potency in words [1] | IC50 ([1]; Huh-7, 24 h) [nM] | fold potency relative to amodiaquine [1] [fold] | Selectivity index [1] | IC50 ([1]; Huh-7) [nM] | CC50 at 24 h [2] [nM]
21 | CCCCCCNCc1cc(Nc2ccnc3cc(Cl)ccc23)ccc1O [Compound 23, 4-(7-chloroquinolin-4-ylamino)-2-hexylaminomethylphenol] |  | 290 ± 30 |  | 18 | 290 | 5180
22 | Oc1ccc(Nc2ccnc3cc(Cl)ccc23)cc1CN1CCOCC1 [Compound 24] |  | 6030 ± 410 |  |  |  | 
23 | CCCCN(C)Cc1cc(Nc2ccnc3cc(Cl)ccc23)ccc1O [Compound 25, 4-(7-chloroquinolin-4-ylamino)-2-(butylmethylamino)methylphenol] |  | 860 ± 80 |  | 77 | 860 | 65900
24 | CCCN(CCC)Cc1cc(Nc2ccnc3cc(Cl)ccc23)ccc1O [Compound 26, 4-(7-chloroquinolin-4-ylamino)-2-dipropylaminomethylphenol] |  | 940 ± 80 |  | >106 | 940 | > 100000
25 | C=CCN(CC=C)Cc1cc(Nc2ccnc3cc(Cl)ccc23)ccc1O [Compound 27, 4-(7-chloroquinolin-4-ylamino)-2-bis(2-propen-1-yl)aminomethylphenol] |  | 2320 ± 320 |  |  |  | 
26 | CCCN(CC)Cc1cc(Nc2ccnc3cc(Cl)ccc23)ccc1O [Compound 29, 4-(7-chloroquinolin-4-ylamino)-2-(ethylpropylamino)methylphenol] |  | 1390 ± 130 |  | >72 | 1390 | > 100000
27 | CN(C)Cc1cc(Nc2ccnc3cc(I)ccc23)ccc1O [Compound 30, 4-(7-iodoquinolin-4-ylamino)-2-dimethylaminomethylphenol] |  | 690 ± 80 |  | >145 | 690 | > 100000
28 | CCN(C)Cc1cc(Nc2ccnc3cc(I)ccc23)ccc1O [Compound 31, 4-(7-iodoquinolin-4-ylamino)-2-ethylmethylaminomethylphenol] |  | 620 ± 60 |  | >161 | 620 | > 100000
29 | CC(C)N(C)Cc1cc(Nc2ccnc3cc(I)ccc23)ccc1O [Compound 32, 4-(7-iodoquinolin-4-ylamino)-2-isopropylmethylaminomethylphenol] |  | 290 ± 40 |  | 132 | 290 | 38400
30 | CN(Cc1cc(Nc2ccnc3cc(I)ccc23)ccc1O)C(C)(C)C [Compound 33, 4-(7-iodoquinolin-4-ylamino)-2-tert-butylmethylaminomethylphenol] |  | 300 ± 40 |  | 108 | 300 | 32300
31 | CCCN(C)Cc1cc(Nc2ccnc3cc(I)ccc23)ccc1O [Compound 34, 4-(7-iodoquinolin-4-ylamino)-2-methylpropylaminomethylphenol] |  | 430 ± 60 |  | >233 | 430 | > 100000
32 | CCCCN(C)Cc1cc(Nc2ccnc3cc(I)ccc23)ccc1O [Compound 35, 4-(7-iodoquinolin-4-ylamino)-2-butylmethylaminomethylphenol] |  | 440 ± 40 |  | 150 | 440 | 66100
33 | CCCCCN(C)Cc1cc(Nc2ccnc3cc(I)ccc23)ccc1O [Compound 36, 4-(7-iodoquinolin-4-ylamino)-2-methylpentylaminomethylphenol] |  | 370 ± 40 |  | >270 | 370 | > 100000
34 | CCCCCCN(C)Cc1cc(Nc2ccnc3cc(I)ccc23)ccc1O [Compound 37, 4-(7-iodoquinolin-4-ylamino)-2-hexylmethylaminomethylphenol] |  | 390 ± 20 |  | >256 | 390 | > 100000
35 | CCCCCCCCN(C)Cc1cc(Nc2ccnc3cc(I)ccc23)ccc1O [Compound 38, 4-(7-iodoquinolin-4-ylamino)-2-methyloctylaminomethylphenol] |  | 260 ± 60 |  | >385 | 260 | > 100000
36 | CCN(CCO)Cc1cc(Nc2ccnc3cc(I)ccc23)ccc1O [Compound 39, 4-(7-iodoquinolin-4-ylamino)-2-ethyl(2-hydroxyethyl)aminomethylphenol] |  | 410 ± 50 |  | >244 | 410 | > 100000
37 | CCCN(CC)Cc1cc(Nc2ccnc3cc(I)ccc23)ccc1O [Compound 40, 4-(7-iodoquinolin-4-ylamino)-2-ethylpropylaminomethylphenol] |  | 360 ± 40 |  | >278 | 360 | > 100000
38 | CCCCN(CC)Cc1cc(Nc2ccnc3cc(I)ccc23)ccc1O [Compound 41, 4-(7-iodoquinolin-4-ylamino)-2-ethylbutylaminomethylphenol] |  | 410 ± 40 |  | 147 | 410 | 60400
39 | Oc1ccc(Nc2ccnc3cc(I)ccc23)cc1CN1CCCC1 [Compound 42, 4-(7-iodoquinolin-4-ylamino)-2-(1-pyrrolidinylmethyl)phenol] |  | 660 ± 50 |  | 54 | 660 | 35300
